Assay results from ChEMBL document CHEMBL1136464, “Array synthesis of novel lipodepsipeptide” (Bioorg Med Chem Lett, 2003).
Values after ≈ are worked out from the molar mass of the structure shown.

Columns and labels:
Assay type in all cases: functional
Enterococcus faecium [1] = assay: Antibacterial activity against Enterococcus faecium ATCC 49452 at 0 % serum
Enterococcus faecium [2] = assay: Antibacterial activity against Enterococcus faecium ATCC 49452 at 10 % serum; conditions: ATCC 49452, Serum
Enterococcus faecalis [3] = assay: Antibacterial activity against Enterococcus faecalis ATCC 6569 at 0 % serum
Enterococcus faecalis [4] = assay: Antibacterial activity against Enterococcus faecalis ATCC 6569 at 10 % serum; conditions: ATCC 6569, Serum
Staphylococcus aureus [5] = assay: Antibacterial activity against methicillin-resistant staphylococcus aureus ATCC 43300 at 10 % serum
Staphylococcus aureus [6] = assay: Antibacterial activity against methicillin susceptible staphylococcus aureus ATCC 29213 at 0 % serum
Staphylococcus aureus [7] = assay: Antibacterial activity against methicillin susceptible staphylococcus aureus ATCC 29213 at 10 % serum
Staphylococcus aureus [8] = assay: Antibacterial activity against methicillin-resistant staphylococcus aureus ATCC 43300 at 0 % serum

Row | Compound | MIC (Enterococcus faecium [1]) [µg/mL] | MIC (Enterococcus faecium [2]) [µg/mL] | MIC (Enterococcus faecalis [3]) [µg/mL] | MIC (Enterococcus faecalis [4]) [µg/mL] | MIC (Staphylococcus aureus [5]) [µg/mL] | MIC (Staphylococcus aureus [6]) [µg/mL] | MIC (Staphylococcus aureus [7]) [µg/mL] | MIC (Staphylococcus aureus [8]) [µg/mL]
1 | CCCCCCCCCC(=O)N[C@@H](Cc1c[nH]c2ccccc12)C(=O)N[C@H](CC(N)=O)C(=O)N[C@@H](CCO)C(=O)N[C@@H]1C(=O)NCC(=O)N[C@@H](CCCNCc2ccc(/C=C/C(=O)N3CCN(c4ccc(Cl)c(Cl)c4)CC3)cc2)C(=O)N[C@@H](CC(=O)O)C(=O)N[C@H](C)C(=O)N[C@@H](CC(=O)O)C(=O)NCC(=O)N[C@H](CO)C(=O)N[C@@H]([C@H](C)CC(=O)O)C(=O)N[C@@H](CC(=O)c2ccccc2N)C(=O)O[C@@H]1C | 1.56 (≈ 0.788 µM) | 50 (≈ 25.3 µM) | 1.56 (≈ 0.788 µM) | 50 (≈ 25.3 µM) | 12.5 (≈ 6.31 µM) | 0.78 (≈ 0.394 µM) | 12.5 (≈ 6.31 µM) | 0.78 (≈ 0.394 µM)
2 | CCCCCCCCCC(=O)N[C@@H](Cc1c[nH]c2ccccc12)C(=O)N[C@H](CC(N)=O)C(=O)N[C@@H](CCO)C(=O)N[C@@H]1C(=O)NCC(=O)N[C@@H](CCCNCc2cc3ccccc3o2)C(=O)N[C@@H](CC(=O)O)C(=O)N[C@H](C)C(=O)N[C@@H](CC(=O)O)C(=O)NCC(=O)N[C@H](CO)C(=O)N[C@@H]([C@H](C)CC(=O)O)C(=O)N[C@@H](CC(=O)c2ccccc2N)C(=O)O[C@@H]1C | 3.13 (≈ 1.8 µM) | 12.5 (≈ 7.2 µM) | 3.13 (≈ 1.8 µM) | 6.25 (≈ 3.6 µM) | 0.78 (≈ 0.449 µM) | 0.78 (≈ 0.449 µM) | 1.56 (≈ 0.898 µM) | 0.78 (≈ 0.449 µM)
3 | CCCCCCCCCC(=O)N[C@@H](Cc1c[nH]c2ccccc12)C(=O)N[C@H](CC(N)=O)C(=O)N[C@@H](CCO)C(=O)N[C@@H]1C(=O)NCC(=O)N[C@@H](CCCNCc2ccc(/C=C/C(=O)N3CCN(c4ccc(F)cc4)CC3)cc2)C(=O)N[C@@H](CC(=O)O)C(=O)N[C@H](C)C(=O)N[C@@H](CC(=O)O)C(=O)NCC(=O)N[C@H](CO)C(=O)N[C@@H]([C@H](C)CC(=O)O)C(=O)N[C@@H](CC(=O)c2ccccc2N)C(=O)O[C@@H]1C | 3.13 (≈ 1.62 µM) | 12.5 (≈ 6.48 µM) | 1.56 (≈ 0.809 µM) | 12.5 (≈ 6.48 µM) | 3.13 (≈ 1.62 µM) | 0.39 (≈ 0.202 µM) | 6.25 (≈ 3.24 µM) | 0.78 (≈ 0.404 µM)
4 | CCCCCCCCCC(=O)N[C@@H](Cc1c[nH]c2ccccc12)C(=O)N[C@H](CC(N)=O)C(=O)N[C@@H](CCO)C(=O)N[C@@H]1C(=O)NCC(=O)N[C@@H](CCCNCc2ccc(OCc3ccc(F)cc3)c([N+](=O)[O-])c2)C(=O)N[C@@H](CC(=O)O)C(=O)N[C@H](C)C(=O)N[C@@H](CC(=O)O)C(=O)NCC(=O)N[C@H](CO)C(=O)N[C@@H]([C@H](C)CC(=O)O)C(=O)N[C@@H](CC(=O)c2ccccc2N)C(=O)O[C@@H]1C | 1.56 (≈ 0.836 µM) | 25 (≈ 13.4 µM) | 0.78 (≈ 0.418 µM) | 12.5 (≈ 6.7 µM) | 3.13 (≈ 1.68 µM) | 0.78 (≈ 0.418 µM) | 6.25 (≈ 3.35 µM) | 0.39 (≈ 0.209 µM)
5 | CCCCCCCCCC(=O)N[C@@H](Cc1c[nH]c2ccccc12)C(=O)N[C@H](CC(N)=O)C(=O)N[C@@H](CCO)C(=O)N[C@@H]1C(=O)NCC(=O)N[C@@H](CCCNCc2ccc(C(=O)N3CCN(c4ccccc4)CC3)cc2)C(=O)N[C@@H](CC(=O)O)C(=O)N[C@H](C)C(=O)N[C@@H](CC(=O)O)C(=O)NCC(=O)N[C@H](CO)C(=O)N[C@@H]([C@H](C)CC(=O)O)C(=O)N[C@@H](CC(=O)c2ccccc2N)C(=O)O[C@@H]1C | 6.25 (≈ 3.32 µM) | 6.25 (≈ 3.32 µM) | 3.13 (≈ 1.66 µM) | 6.25 (≈ 3.32 µM) | 1.56 (≈ 0.828 µM) | 0.78 (≈ 0.414 µM) | 1.56 (≈ 0.828 µM) | 0.78 (≈ 0.414 µM)
6 | CCCCCCCCCC(=O)N[C@@H](Cc1c[nH]c2ccccc12)C(=O)N[C@H](CC(N)=O)C(=O)N[C@@H](CCO)C(=O)N[C@@H]1C(=O)NCC(=O)N[C@@H](CCCNCc2ccccc2N)C(=O)N[C@@H](CC(=O)O)C(=O)N[C@H](C)C(=O)N[C@@H](CC(=O)O)C(=O)NCC(=O)N[C@H](CO)C(=O)N[C@@H]([C@H](C)CC(=O)O)C(=O)N[C@@H](CC(=O)c2ccccc2N)C(=O)O[C@@H]1C | 6.25 (≈ 3.65 µM) | 6.25 (≈ 3.65 µM) | 6.25 (≈ 3.65 µM) | 25 (≈ 14.6 µM) | 1.56 (≈ 0.911 µM) | 0.78 (≈ 0.456 µM) | 3.13 (≈ 1.83 µM) | 0.78 (≈ 0.456 µM)
7 | CCCCCCCCCC(=O)N[C@@H](Cc1c[nH]c2ccccc12)C(=O)N[C@H](CC(N)=O)C(=O)N[C@@H](CCO)C(=O)N[C@@H]1C(=O)NCC(=O)N[C@@H](CCCNCc2ccc(S(=O)(=O)NCc3ccc(C(F)(F)F)cc3)cc2)C(=O)N[C@@H](CC(=O)O)C(=O)N[C@H](C)C(=O)N[C@@H](CC(=O)O)C(=O)NCC(=O)N[C@H](CO)C(=O)N[C@@H]([C@H](C)CC(=O)O)C(=O)N[C@@H](CC(=O)c2ccccc2N)C(=O)O[C@@H]1C | 0.39 (≈ 0.202 µM) | 6.25 (≈ 3.23 µM) | 0.78 (≈ 0.403 µM) | 6.25 (≈ 3.23 µM) | 0.78 (≈ 0.403 µM) | 0.78 (≈ 0.403 µM) | 3.13 (≈ 1.62 µM) | 0.39 (≈ 0.202 µM)
8 | CCCCCCCCCC(=O)N[C@@H](Cc1c[nH]c2ccccc12)C(=O)N[C@H](CC(N)=O)C(=O)N[C@@H](CCO)C(=O)N[C@@H]1C(=O)NCC(=O)N[C@@H](CCCNCc2ccc(C#N)cc2)C(=O)N[C@@H](CC(=O)O)C(=O)N[C@H](C)C(=O)N[C@@H](CC(=O)O)C(=O)NCC(=O)N[C@H](CO)C(=O)N[C@@H]([C@H](C)CC(=O)O)C(=O)N[C@@H](CC(=O)c2ccccc2N)C(=O)O[C@@H]1C | 6.25 (≈ 3.63 µM) | 12.5 (≈ 7.26 µM) | 6.25 (≈ 3.63 µM) | 6.25 (≈ 3.63 µM) | 0.78 (≈ 0.453 µM) | 0.78 (≈ 0.453 µM) | 0.78 (≈ 0.453 µM) | 0.78 (≈ 0.453 µM)
9 | CCCCCCCCCC(=O)N[C@@H](Cc1c[nH]c2ccccc12)C(=O)N[C@H](CC(N)=O)C(=O)N[C@@H](CCO)C(=O)N[C@@H]1C(=O)NCC(=O)N[C@@H](CCCNCc2cccc([N+](=O)[O-])c2)C(=O)N[C@@H](CC(=O)O)C(=O)N[C@H](C)C(=O)N[C@@H](CC(=O)O)C(=O)NCC(=O)N[C@H](CO)C(=O)N[C@@H]([C@H](C)CC(=O)O)C(=O)N[C@@H](CC(=O)c2ccccc2N)C(=O)O[C@@H]1C | 6.25 (≈ 3.59 µM) | 12.5 (≈ 7.18 µM) | 6.25 (≈ 3.59 µM) | 12.5 (≈ 7.18 µM) | 1.56 (≈ 0.896 µM) | 0.78 (≈ 0.448 µM) | 1.56 (≈ 0.896 µM) | 0.78 (≈ 0.448 µM)
10 | CCCCCCCCCC(=O)N[C@@H](Cc1c[nH]c2ccccc12)C(=O)N[C@H](CC(N)=O)C(=O)N[C@@H](CCO)C(=O)N[C@@H]1C(=O)NCC(=O)N[C@@H](CCCNCc2ccc3ccccc3n2)C(=O)N[C@@H](CC(=O)O)C(=O)N[C@H](C)C(=O)N[C@@H](CC(=O)O)C(=O)NCC(=O)N[C@H](CO)C(=O)N[C@@H]([C@H](C)CC(=O)O)C(=O)N[C@@H](CC(=O)c2ccccc2N)C(=O)O[C@@H]1C | 6.25 (≈ 3.58 µM) | 25 (≈ 14.3 µM) | 6.25 (≈ 3.58 µM) | 12.5 (≈ 7.15 µM) | 0.78 (≈ 0.446 µM) | 0.78 (≈ 0.446 µM) | 1.56 (≈ 0.893 µM) | 0.78 (≈ 0.446 µM)
11 | CCCCCCCCCC(=O)N[C@@H](Cc1c[nH]c2ccccc12)C(=O)N[C@H](CC(N)=O)C(=O)N[C@@H](CCO)C(=O)N[C@@H]1C(=O)NCC(=O)N[C@@H](CCCNCc2nccs2)C(=O)N[C@@H](CC(=O)O)C(=O)N[C@H](C)C(=O)N[C@@H](CC(=O)O)C(=O)NCC(=O)N[C@H](CO)C(=O)N[C@@H]([C@H](C)CC(=O)O)C(=O)N[C@@H](CC(=O)c2ccccc2N)C(=O)O[C@@H]1C | 6.24 (≈ 3.66 µM) | 6.25 (≈ 3.67 µM) | 6.25 (≈ 3.67 µM) | 12.5 (≈ 7.34 µM) | 0.78 (≈ 0.458 µM) | 0.78 (≈ 0.458 µM) | 1.56 (≈ 0.916 µM) | 0.78 (≈ 0.458 µM)
12 | CCCCCCCCCC(=O)N[C@@H](Cc1c[nH]c2ccccc12)C(=O)N[C@H](CC(N)=O)C(=O)N[C@@H](CCO)C(=O)N[C@@H]1C(=O)NCC(=O)N[C@@H](CCCNCc2ccc(C(=O)N3CCN(c4ccc(F)cc4)CC3)cc2)C(=O)N[C@@H](CC(=O)O)C(=O)N[C@H](C)C(=O)N[C@@H](CC(=O)O)C(=O)NCC(=O)N[C@H](CO)C(=O)N[C@@H]([C@H](C)CC(=O)O)C(=O)N[C@@H](CC(=O)c2ccccc2N)C(=O)O[C@@H]1C | 6.25 (≈ 3.28 µM) | 6.25 (≈ 3.28 µM) | 3.13 (≈ 1.64 µM) | 6.25 (≈ 3.28 µM) | 0.78 (≈ 0.41 µM) | 0.78 (≈ 0.41 µM) | 1.56 (≈ 0.82 µM) | 0.78 (≈ 0.41 µM)
13 | CCCCCCCCCC(=O)N[C@@H](Cc1c[nH]c2ccccc12)C(=O)N[C@H](CC(N)=O)C(=O)N[C@@H](CCO)C(=O)N[C@@H]1C(=O)NCC(=O)N[C@@H](CCCNCc2ccccc2F)C(=O)N[C@@H](CC(=O)O)C(=O)N[C@H](C)C(=O)N[C@@H](CC(=O)O)C(=O)NCC(=O)N[C@H](CO)C(=O)N[C@@H]([C@H](C)CC(=O)O)C(=O)N[C@@H](CC(=O)c2ccccc2N)C(=O)O[C@@H]1C | 6.25 (≈ 3.64 µM) | 12.5 (≈ 7.29 µM) | 6.25 (≈ 3.64 µM) | 12.5 (≈ 7.29 µM) | 0.78 (≈ 0.455 µM) | 0.78 (≈ 0.455 µM) | 1.56 (≈ 0.91 µM) | 0.78 (≈ 0.455 µM)
14 | CCCCCCCCCC(=O)N[C@@H](Cc1c[nH]c2ccccc12)C(=O)N[C@H](CC(N)=O)C(=O)N[C@@H](CCO)C(=O)N[C@@H]1C(=O)NCC(=O)N[C@@H](CCCNCc2ccc(S(=O)(=O)N3CCN(c4ccccc4)CC3)cc2)C(=O)N[C@@H](CC(=O)O)C(=O)N[C@H](C)C(=O)N[C@@H](CC(=O)O)C(=O)NCC(=O)N[C@H](CO)C(=O)N[C@@H]([C@H](C)CC(=O)O)C(=O)N[C@@H](CC(=O)c2ccccc2N)C(=O)O[C@@H]1C | 1.56 (≈ 0.812 µM) | 12.5 (≈ 6.51 µM) | 0.78 (≈ 0.406 µM) | 6.25 (≈ 3.25 µM) | 0.78 (≈ 0.406 µM) | 0.39 (≈ 0.203 µM) | 3.13 (≈ 1.63 µM) | 0.78 (≈ 0.406 µM)
15 | CCCCCCCCCC(=O)N[C@@H](Cc1c[nH]c2ccccc12)C(=O)N[C@H](CC(N)=O)C(=O)N[C@@H](CCO)C(=O)N[C@@H]1C(=O)NCC(=O)N[C@@H](CCCNCc2ccc(OCc3ccccc3)c(Cl)c2)C(=O)N[C@@H](CC(=O)O)C(=O)N[C@H](C)C(=O)N[C@@H](CC(=O)O)C(=O)NCC(=O)N[C@H](CO)C(=O)N[C@@H]([C@H](C)CC(=O)O)C(=O)N[C@@H](CC(=O)c2ccccc2N)C(=O)O[C@@H]1C | 0.39 (≈ 0.212 µM) | 25 (≈ 13.6 µM) | 0.78 (≈ 0.425 µM) | 12.5 (≈ 6.8 µM) | 3.13 (≈ 1.7 µM) | 0.78 (≈ 0.425 µM) | 3.13 (≈ 1.7 µM) | 0.78 (≈ 0.425 µM)
